Structures are written as SMILES.

In one test the test system is HCV genotype 1a replicon cell line. As to the kind of experiment: HCV Genotype 1a Replicon Assay. Type of test: cell-based, hepatitis C virus. The following applies: Hepatitis C virus, Huh7.5 cell background, NS3-specific protease activity in lysates, 48 or 72 hours, read-out: Genotype 1a (pEC50 class) (converted). Here is the method:
Assay 2: HCV Genotype 1a Replicon Assay
The HCV genotype 1a replicon cell line was obtained from Apath LLC (APC89; Huh7.5 cell background). This subgenomic replicon contains the N-terminus of the HCV core protein fused to the neomycin-resistance selectable marker. The EMCV IRES lies downstream and drives expression of the non-structural proteins NS3-NS5B. Compound potencies were determined using the NS3-specific protease activity in lysates as a measurement of compound inhibition of replicon levels.
Cells were grown at 37° C. in a 5% CO2 humidified incubator in DMEM (Invitrogen) with 10% FBS (HyClone), 1×NEAA (Invitrogen), 1× Pen-Strep (Invitrogen), and 850 μg/mL G418 (Invitrogen). On day 1 of the assay, cells were plated at 15,000 cells/well in black 96-well tissue culture plates (Costar) in 200 μL media lacking G418. Four hours later, once the cells had adhered, the media was removed and replaced with media (no G418) containing dose-responses of test compounds. Compounds were initially diluted in DMSO and then diluted another 200× in media to bring the final DMSO concentration down to 0.5%. The cells were incubated with test compounds for 48 or 72 hours. At the end of the incubation period, media and compound were removed from the plates.
To determine the NS3-specific protease activity in lysates, the cells were lysed at room temperature in 50 μL/well of 50 mM Hepes pH 7.5, 150 mM NaCl, 15% Glycerol, 0.15% Triton X-100, 10 mM DTT for 20 minutes with shaking. 50 μL of an NS3/4a protease-specific FRET substrate (Anaspec RET SI Cat#22991) was then added to the wells at a final concentration of 15 μM. The plates were incubated at 37° C. for 20 minutes, which corresponds to a timepoint at which the protease activity is still in the linear phase. Protease activity was determined by measuring fluorescence (Excitation: 340 nm; Emission: 509 nm).
To analyze the data, the fluorescence was plotted vs. the compound concentration, and EC50 values were determined from a 4-parameter robust fit model using GraphPad Prism software.
Take `COC(=O)N[C@H](C(=O)N1CCC[C@H]1c1nc(-c2ccc(-c3ccc(NC(=O)N4CCN(C5CCN(C(=O)C6CC6)CC5)[C@@H](C)C4)cc3OC(F)(F)F)cc2)c[nH]1)C(C)C` [Example 1, ((S)-1-{(S)-2-[4-(4′-{[(S)-4-(1-Cyclopropanecarbonyl-piperidin-4-yl)-3-methyl-piperazine-1-carbonyl]-amino}-2′-trifluoromethoxy-biphenyl-4-yl)-1H-imidazol-2-yl]-pyrrolidine-1-carbonyl}-2-methyl-propyl)-carbamic acid methyl ester]: the EC50 was 0.1 to 1 nM.

Still in this test, the particulars now being: Huh7.5 cell background, NS3-specific protease activity in lysates, 48 or 72 hours.
Turning to `COC(=O)N[C@H](C(=O)N1CCC[C@H]1c1nc(-c2ccc(-c3ccc(NC(=O)N4CCN(C5CCN(C(=O)OCc6ccccc6)CC5)CC4)cc3)cc2)c[nH]1)C(C)C` [Example 1-2], the “Genotype 1a (pEC50 class)” value was “B (B represents pEC50 between 8 and 9 (EC50 between 1 and 10 nM))”.
For the compound `COC(=O)N[C@H](C(=O)N1CCC[C@H]1c1nc(-c2ccc(-c3ccc(NC(=O)N4CCN(C5CCN(C(=O)[C@H]6CC6(C)C)CC5)CC4)cc3)cc2)c[nH]1)C(C)C` [Example 1-3], the “Genotype 1a (pEC50 class)” value is “C (C represents pEC50 between and 9 and about 10, (EC50 between 1 nM and 0.1 nM))”.
Same read-out and setting: the value for `COC(=O)N[C@H](C(=O)N1CCC[C@H]1c1nc(-c2ccc(-c3ccc(NC(=O)N4CCN(C5CCN(C(=O)c6c[nH]cn6)CC5)CC4)cc3)cc2)c[nH]1)C(C)C` [Example 1-5] was “B (B represents pEC50 between 8 and 9 (EC50 between 1 and 10 nM))”.
Still for that read-out and setting: next, `COC(=O)N[C@H](C(=O)N1CCC(N2CCN(C(=O)Nc3ccc(-c4ccc(-c5c[nH]c([C@@H]6CCCN6C(=O)[C@@H](NC(=O)OC)C(C)C)n5)cc4)cc3)CC2)CC1)C(C)C` [Example 1-6]: “A (A represents a pEC50 value between 6 and 8 (EC50 between 1 μM and 10 nM))”.
Take `CNC(=O)N1CCC(N2CCN(C(=O)Nc3ccc(-c4ccc(-c5c[nH]c([C@@H]6CCCN6C(=O)[C@@H](NC(=O)OC)C(C)C)n5)cc4)cc3)CC2)CC1` [Example 1-7]: the “Genotype 1a (pEC50 class)” value is “B (B represents pEC50 between 8 and 9 (EC50 between 1 and 10 nM))”.
For `COC(=O)N[C@H](C(=O)N1CCC[C@H]1c1nc(-c2ccc(-c3ccc(NC(=O)N4CCN(C5CCN(C(=O)OC)CC5)CC4)cc3)cc2)c[nH]1)C(C)C` [Example 1-9], the “Genotype 1a (pEC50 class)” value was “B (B represents pEC50 between 8 and 9 (EC50 between 1 and 10 nM))”.
As for `COC(=O)N[C@H](C(=O)N1CCC[C@H]1c1nc(-c2ccc(-c3ccc(NC(=O)N4CCN(C5CCN(C(=O)C67CC8CC(CC(O)(C8)C6)C7)CC5)CC4)cc3OC(F)(F)F)cc2)c[nH]1)C(C)C` [Example 1-10], the “Genotype 1a (pEC50 class)” value is “B (B represents pEC50 between 8 and 9 (EC50 between 1 and 10 nM))”.
On to `COC(=O)N[C@H](C(=O)N1CCC[C@H]1c1nc(-c2ccc(-c3ccc(NC(=O)N4CCN(C5CCN(C(=O)C6CC7CCC6C7)CC5)CC4)cc3OC(F)(F)F)cc2)c[nH]1)C(C)C` (stereo partly shown) [Example 1-11], for which the “Genotype 1a (pEC50 class)” value is “C (C represents pEC50 between and 9 and about 10, (EC50 between 1 nM and 0.1 nM))”.
The same measure, in the same setting: next, `COC(=O)N[C@H](C(=O)N1CCC[C@H]1c1nc(-c2ccc(-c3ccc(NC(=O)N4CCN(C5CCN(C(=O)C(C)NC(N)=O)CC5)CC4)cc3OC(F)(F)F)cc2)c[nH]1)C(C)C` (stereo partly shown) [Example 1-15]: “B (B represents pEC50 between 8 and 9 (EC50 between 1 and 10 nM))”; `COC(=O)N[C@H](C(=O)N1CCC[C@H]1c1nc(-c2ccc(-c3ccc(NC(=O)N4CCN(C5CCN(C(=O)C6CC6)CC5)C[C@H]4C)cc3OC(F)(F)F)cc2)c[nH]1)C(C)C` [Example 1-18]: “C (C represents pEC50 between and 9 and about 10, (EC50 between 1 nM and 0.1 nM))”; `COC(=O)N[C@H](C(=O)N1CCC[C@H]1c1nc(-c2ccc(-c3ccc(NC(=O)N4CCN(C5CCN(C(=O)OC(C)(C)C)CC5)C[C@H]4C)cc3OC(F)(F)F)cc2)c[nH]1)C(C)C` [Example 1-19]: “C (C represents pEC50 between and 9 and about 10, (EC50 between 1 nM and 0.1 nM))”.
Still for that read-out and setting: next, `COC(=O)N[C@H](C(=O)N1CCC[C@H]1c1nc(-c2ccc(-c3ccc(NC(=O)N4CCN(C5CCN(C(=O)c6ncccn6)CC5)CC4)cc3OC(F)(F)F)cc2)c[nH]1)C(C)C` [Example 1-21]: “B (B represents pEC50 between 8 and 9 (EC50 between 1 and 10 nM))”; `COC(=O)N[C@H](C(=O)N1CCC[C@H]1c1nc(-c2ccc(-c3ccc(NC(=O)N4CCN(C5CCN(C(=O)c6c[nH]cn6)CC5)CC4)cc3OC(F)(F)F)cc2)c[nH]1)C(C)C` [Example 1-23]: “C (C represents pEC50 between and 9 and about 10, (EC50 between 1 nM and 0.1 nM))”; `CNC(=O)N1CCC(N2CCN(C(=O)Nc3ccc(-c4ccc(-c5c[nH]c([C@@H]6CCCN6C(=O)[C@@H](NC(=O)OC)C(C)C)n5)cc4)c(OC(F)(F)F)c3)CC2)CC1` [Example 1-24]: “C (C represents pEC50 between and 9 and about 10, (EC50 between 1 nM and 0.1 nM))”.
In the case of `COC(=O)N[C@H](C(=O)N1CCC[C@H]1c1nc(-c2ccc(-c3cc(F)c(NC(=O)N4CCN(C5CCN(C(=O)[C@H]6CC6(C)C)CC5)CC4)cc3OC(F)(F)F)cc2)c[nH]1)C(C)C` [Example 1-26], the “Genotype 1a (pEC50 class)” value is “C (C represents pEC50 between and 9 and about 10, (EC50 between 1 nM and 0.1 nM))”.
The same measure, in the same setting: the value for `COC(=O)N[C@H](C(=O)N1CCC[C@H]1c1nc(-c2ccc(-c3cc(F)c(NC(=O)N4CCN(C5CCN(C(=O)C6CC6)CC5)CC4)cc3OC(F)(F)F)cc2)c[nH]1)C(C)C` [Example 1-28] was “C (C represents pEC50 between and 9 and about 10, (EC50 between 1 nM and 0.1 nM))”; that for `COC(=O)N[C@H](C(=O)N1CCC(N2CCN(C(=O)Nc3ccc(-c4ccc(-c5c[nH]c([C@@H]6CCCN6C(=O)[C@@H](NC(=O)OC)C(C)C)n5)cc4)c(OC(F)(F)F)c3)CC2)CC1)C(C)C` [Example 1-29] was “A (A represents a pEC50 value between 6 and 8 (EC50 between 1 μM and 10 nM))”; that for `CCN(CC)[C@@H](C(=O)N1CCC(N2CCN(C(=O)Nc3ccc(-c4ccc(-c5c[nH]c([C@@H]6CCCN6C(=O)[C@@H](NC(=O)OC)C(C)C)n5)cc4)c(OC(F)(F)F)c3)CC2)CC1)C(C)C` [Example 1-30] was “A (A represents a pEC50 value between 6 and 8 (EC50 between 1 μM and 10 nM))”.
The same measure, in the same setting: next, `CCN(CC)[C@@H](C(=O)N1CCC(N2CCN(C(=O)Nc3ccc(-c4ccc(-c5c[nH]c([C@@H]6CCCN6C(=O)[C@@H](NC(=O)OC)C(C)C)n5)cc4)c(OC(F)(F)F)c3)CC2)CC1)c1ccccc1` [Example 1-32]: “A (A represents a pEC50 value between 6 and 8 (EC50 between 1 μM and 10 nM))”; `COC(=O)N[C@H](C(=O)N1CCC[C@H]1c1nc(-c2ccc(-c3cc(Cl)c(NC(=O)N4CCN(C5CCN(C(=O)C6CC6)CC5)CC4)cc3OC(F)(F)F)cc2)c[nH]1)C(C)C` [Example 1-33]: “C (C represents pEC50 between and 9 and about 10, (EC50 between 1 nM and 0.1 nM))”.
The same measure, in the same setting: the value for `COC(=O)N[C@H](C(=O)N1CCC[C@H]1c1nc(-c2ccc(-c3cc(Cl)c(NC(=O)N4CCN(C5CCN(C(=O)[C@H]6CC6(C)C)CC5)CC4)cc3OC(F)(F)F)cc2)c[nH]1)C(C)C` [Example 1-34] was “C (C represents pEC50 between and 9 and about 10, (EC50 between 1 nM and 0.1 nM))”.

The values are drawn from patent US9206159B2, “Piperazine-piperidine compounds as hepatitis C virus inhibitors” (Theravance Biopharma R&D IP, LLC, priority 2012, dated 2015).
